Like-named read-outs stand apart in the source and are kept apart here.
Legend:
[1] = tested on: OVCAR-8; experiment: NCI-60 SRB screen, ovarian cancer; type: cell-based, human; conditions: OVCAR-8, 48 h; for GI50: Homo sapiens, five dose 0.01–100 µM, read-out: GI50
[2] = tested on: NCI/ADR-RES; experiment: NCI-60 SRB screen, ovarian cancer; type: cell-based, human; conditions: 48 h; for GI50: Homo sapiens, five dose 0.01–100 µM, read-out: GI50
[3] = tested on: UO-31; experiment: NCI-60 SRB screen, renal cancer; type: cell-based, human; conditions: UO-31, 48 h; for GI50: Homo sapiens, five dose 0.01–100 µM, read-out: GI50
[4] = tested on: SF295; experiment: NCI-60 SRB screen, CNS cancer; type: cell-based, human; conditions: SF-295, 48 h; for GI50: Homo sapiens, SF295, five dose 0.01–100 µM, read-out: GI50
[5] = tested on: U251; experiment: NCI-60 SRB screen, CNS cancer; type: cell-based, human; conditions: U251, 48 h; for GI50: Homo sapiens, U-251, five dose 0.01–100 µM, read-out: GI50
[6] = tested on: CAKI-1; experiment: NCI-60 SRB screen, renal cancer; type: cell-based, human; conditions: CAKI-1, 48 h; for GI50: Homo sapiens, five dose 0.01–100 µM, read-out: GI50
[7] = tested on: OVCAR-3; experiment: NCI-60 SRB screen, ovarian cancer; type: cell-based, human; conditions: OVCAR-3, 48 h; for GI50: Homo sapiens, five dose 0.01–100 µM, read-out: GI50
[8] = tested on: OVCAR-4; experiment: NCI-60 SRB screen, ovarian cancer; type: cell-based, human; conditions: OVCAR-4, 48 h; for GI50: Homo sapiens, five dose 0.01–100 µM, read-out: GI50
[9] = tested on: A498; experiment: NCI-60 SRB screen, renal cancer; type: cell-based, human; conditions: A498, 48 h; for GI50: Homo sapiens, five dose 0.01–100 µM, read-out: GI50
[10] = tested on: UACC-62; experiment: NCI-60 SRB screen, melanoma; type: cell-based, human; conditions: UACC-62, 48 h; for GI50: Homo sapiens, five dose 0.01–100 µM, read-out: GI50
[11] = tested on: NCI 60 human cancer cell line panel; experiment: NCI 60 cell line screen (SRB), panel values; conditions: for IC (TGI (total growth inhibition)): read-out: Mean TGI
[12] = tested on: NCI-H332M; experiment: NCI-60 SRB screen, non-small cell lung cancer; type: cell-based; conditions: Homo sapiens, five dose 0.01–100 µM, 48 h, read-out: GI50
[13] = tested on: RPMI-8226; experiment: NCI-60 SRB screen, leukemia; type: cell-based, human; conditions: RPMI-8226, 48 h; for GI50: Homo sapiens, five dose 0.01–100 µM, read-out: GI50
[14] = tested on: SK-MEL-28; experiment: NCI-60 SRB screen, melanoma; type: cell-based, human; conditions: SK-MEL-28, 48 h; for GI50: Homo sapiens, five dose 0.01–100 µM, read-out: GI50
[15] = tested on: IGROV1; experiment: NCI-60 SRB screen, ovarian cancer; type: cell-based, human; conditions: IGROV1, 48 h; for GI50: Homo sapiens, IGROV-1, five dose 0.01–100 µM, read-out: GI50
[16] = tested on: TK-10; experiment: NCI-60 SRB screen, renal cancer; type: cell-based, human; conditions: TK-10, 48 h; for GI50: Homo sapiens, five dose 0.01–100 µM, read-out: GI50
[17] = tested on: HCT-116; experiment: NCI-60 SRB screen, colon cancer; type: cell-based, human; conditions: HCT-116, 48 h; for GI50: Homo sapiens, five dose 0.01–100 µM, read-out: GI50
[18] = tested on: purified bovine brain tubulin; experiment: Tubulin polymerization assay (light scattering, BK006 kit); type: biochemical; conditions: compound at 10 μM; relative to vehicle
Summary of the method: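 Compounds tested at 10 µM against vehicle (1% DMSO or EtOH) with bovine brain tubulin, 3 mg/mL, in pH 6.9 PIPES buffer containing 1 mM GTP and 10% glycerol, 37 °C. Light scattering at 340 nm tracked microtubule formation; average of two independent runs reported.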

[19] = tested on: SK-MEL-2; experiment: NCI-60 SRB screen, melanoma; type: cell-based, human; conditions: SK-MEL-2, 48 h; for GI50: Homo sapiens, five dose 0.01–100 µM, read-out: GI50
[20] = tested on: MDA-MB-468; experiment: NCI-60 SRB screen, breast cancer; type: cell-based, human; conditions: MDA-MB-468, 48 h; for GI50: Homo sapiens, five dose 0.01–100 µM, read-out: GI50
[21] = tested on: SNB-75; experiment: NCI-60 SRB screen, CNS cancer; type: cell-based, human; conditions: SNB-75, 48 h; for GI50: Homo sapiens, five dose 0.01–100 µM, read-out: GI50
[22] = tested on: ACHN; experiment: NCI-60 SRB screen, renal cancer; type: cell-based, human; conditions: 48 h; for GI50: Homo sapiens, five dose 0.01–100 µM, read-out: GI50
[23] = tested on: RXF 393; experiment: NCI-60 SRB screen, renal cancer; type: cell-based, human; conditions: RXF 393, 48 h; for GI50: Homo sapiens, five dose 0.01–100 µM, read-out: GI50
[24] = tested on: A549/ATCC; experiment: NCI-60 SRB screen, non-small cell lung cancer; type: cell-based, human; conditions: 48 h; for GI50: Homo sapiens, A549/ATCC, five dose 0.01–100 µM, read-out: GI50
[25] = tested on: MOLT-4; experiment: NCI-60 SRB screen, leukemia; type: cell-based, human; conditions: MOLT-4, 48 h; for GI50: Homo sapiens, five dose 0.01–100 µM, read-out: GI50
[26] = tested on: CCRF-CEM; experiment: NCI-60 SRB screen, leukemia; type: cell-based; conditions: Homo sapiens, five dose 0.01–100 µM, 48 h, read-out: GI50
[27] = tested on: K-562; experiment: NCI-60 SRB screen, leukemia; type: cell-based, human; conditions: for GI50: Homo sapiens, K562, 48 h, read-out: GI50
[28] = tested on: MCF-7; experiment: cells; conditions: Homo sapiens; for GI50: MCF7, 48 h
[29] = Homo sapiens, 60 cell, read-out: Mean LC50

With C=C(C)C1C(=O)N(c2cc(OC)c(OC)c(OC)c2)C1c1ccc(OC)c(O)c1 (stereo not drawn) [9q, 4-(3-Hydroxy-4-methoxyphenyl)-1-(3,4,5-trimethoxyphenyl)-3-(prop-1-en-2-yl)azetidin-2-one] the GI50 [1] was less than 0.01 µM, the “% Growth” value ([1]; one dose 10 µM) was 14.64% and the GI50 [2] was less than 0.01 µM. For the same compound, the “% Growth” value ([2]; one dose 10 µM) was -2.95%, the GI50 [3] was 0.0878 µM and the “% Growth” value ([3]; one dose 10 µM) was 29.39%. The GI50 [4] was less than 0.01 µM, the “% Growth” value ([4]; one dose 10 µM) was 20.26% and the GI50 [5] was 0.0305 µM. For the same compound, the “% Growth” value ([5]; one dose 10 µM) was 9.06%, the “% Growth” value ([6]; one dose 10 µM) was 44.03% and the GI50 [6] was 0.0308 µM. The GI50 [7] was 0.0207 µM, the “% Growth” value ([7]; one dose 10 µM) was -40.14% and the GI50 [8] was less than 0.01 µM. For the same compound, the “% Growth” value ([8]; one dose 10 µM) was 25.51%, the “% Growth” value ([9]; one dose 10 µM) was -13.19% and the GI50 [9] was less than 0.01 µM. The GI50 [10] was less than 0.01 µM, the “% Growth” value ([10]; one dose 10 µM) was 38.81% and the CC50 ([11]; Homo sapiens, 60 cell, 9 h, read-out: LC50) was greater than 100 µM. For the same compound, the GI50 ([11]; Homo sapiens, 60 cell, breast cancer cell lines MCF-7, MDA-MB-231, HS 578T, BT-549, MDA-MB-468) was 0.01 to 0.016 µM, the GI50 ([11]; Homo sapiens, 60 cell, in 48 of the panel cell lines tested) was less than 0.05 µM and the CC50 [11, 29] was 81.3 µM. The IC (TGI (total growth inhibition)) ([11]; Homo sapiens, 60 cell) was 32.4 µM, the GI50 in words ([11]; all cell lines investigated except T-47D) was “sub-micromolar” and the TGI ([11]; for 34 of the cell lines tested) was greater than 100 µM. For the same compound, the “% Growth, Delta” value ([11]; one dose 10 µM, 48 h) was 65.02%, the “% Growth, Range” value ([11]; one dose 10 µM, 48 h) was 126.47% and the “% Growth, Mean” value ([11]; one dose 10 µM, 48 h, all cell lines) was 13.02%. For the same compound, the GI50 ([12]; […]) was 0.0477 µM, the GI50 [13] was 0.0111 µM and the “% Growth” value ([13]; one dose 10 µM) was 11.06%. The GI50 [14] was 64.3 µM, the “% Growth” value ([14]; one dose 10 µM) was 65.72% and the GI50 [15] was 0.0322 µM. The “% Growth” value ([15]; one dose 10 µM) was 29.32%, the GI50 [16] was 0.0534 µM and the “% Growth” value ([16]; one dose 10 µM) was 46.63%. For the same compound, the “% Growth” value ([17]; one dose 10 µM) was -10.74%, the GI50 [17] was 0.0149 µM and the “Fold Reduction in Vmax” value [18] was 4.27. The GI50 [19] was 0.0446 µM, the “% Growth” value ([19]; one dose 10 µM) was 9.55% and the GI50 [20] was less than 0.01 µM. For the same compound, the “% Growth” value ([20]; one dose 10 µM) was 13.36%, the GI50 [21] was 0.0473 µM and the “% Growth” value ([21]; one dose 10 µM) was 41.90%. The GI50 [22] was 0.0213 µM, the “% Growth” value ([22]; one dose 10 µM) was 34.94% and the GI50 [23] was 0.0428 µM. The “% Growth” value ([23]; one dose 10 µM) was 18.79%, the “% Growth” value ([24]; A549/A TCC, one dose 10 µM) was 14.76% and the GI50 [24] was 0.0278 µM. For the same compound, the GI50 [25] was 0.0202 µM, the “% Growth” value ([25]; one dose 10 µM) was -15.34% and the GI50 [26] was 0.0192 µM. For the same compound, the GI50 [27] was 0.0352 µM, the “% Growth” value ([27]; K-562, one dose 10 µM, 48 h) was 2.20% and the IC50 ([28]; MCF7) was less than 0.01 µM. The GI50 [28] was less than 0.01 µM and the CC50 ([28]; MCF7, read-out: LC50) was greater than 100 µM.

With C=C(C)C1C(=O)N(c2cc(OC)c(OC)c(OC)c2)C1c1ccc(OC)c(N)c1 (stereo not drawn) [9s, 4-(3-Amino-4-methoxyphenyl)-1-(3,4,5-trimethoxyphenyl)-3-(prop-1-en-2-yl)azetidin-2-one] the GI50 [1] was 0.0308 µM, the GI50 [2] was 0.0185 µM and the GI50 [3] was 0.074 µM. It also gave a GI50 [4] of 0.0344 µM, a GI50 [5] of 0.0375 µM and a GI50 [6] of 0.0491 µM. For the same compound, the GI50 [7] was 0.0228 µM, the GI50 [8] was 0.0407 µM and the GI50 [9] was 0.0234 µM. It also gave a GI50 [10] of 0.0406 µM, a GI50 ([11]; Homo sapiens, 60 cell, read-out: Mean GI50, mean over all NCI 60 cell lines) of less than 0.0912 µM and a CC50 [11, 29] of 75.9 µM. It also gave an IC (TGI (total growth inhibition)) ([11]; Homo sapiens, 60 cell) of 22.4 µM, a GI50 ([11]; read-out: Mean GI50, mean over all NCI 60 cell lines) of 0.055 µM and a GI50 [12] of 0.0511 µM. The GI50 [13] was 0.0359 µM, the GI50 [14] was greater than 100 µM and the GI50 [15] was 0.0357 µM. For the same compound, the GI50 [16] was 0.0649 µM, the GI50 [17] was 0.0302 µM and the “Fold Reduction in Vmax” value [18] was 2.66. For the same compound, the GI50 [19] was 0.0676 µM, the GI50 [20] was 0.0216 µM and the GI50 [21] was 0.0601 µM. The GI50 [22] was 0.062 µM, the GI50 [23] was 0.0396 µM and the GI50 [24] was 0.0415 µM. The GI50 [25] was 0.0372 µM, the GI50 [26] was 0.0377 µM and the GI50 [27] was 0.0383 µM. It also gave a GI50 [28] of 0.0324 µM.
